From PMC5656594 (Scientific Reports, 2017)

Columns and labels:
IN = settings: INSTIs; cited from earlier work
[1] = target: T1, IN^PFV-viral DNA interaction (Human spumaretrovirus, UniProt P14350); assay: IN-viral DNA interaction by steady-state fluorescence anisotropy of Fl-DNA with increasing drug concentrations; type: binding, prototype foamy virus (PFV); settings: 400 nM IN^PFV, 4 nM Fl-PFV^CAAT, 10 mM Mg2+, up to 20 µM drug; means INSTI did not prevent IN-DNA interactions
T1 construct: The full-length wt IN^PFV, the three single mutants of the catalytic triad; His; made in house; host or cells: E. coli BL21-CodonPlus (DE3)-RIPL
Method: Their incapability to prevent or disrupt IN-viral DNA complexes was consistently observed over the whole concentration range, regardless of the INSTI tested (Supplementary Fig. S7).
(§1) IN^PFV binding to DNA was measured by fluorescence anisotropy on a Beacon Instrument (Panvera, Madison, WI, USA) as previously described[25],[51], using a double-stranded 21-mer Fl-labeled DNA mimicking the PFV U5 LTR end also referred to as DNA#1 in Table 1 (labeled at the 5′-end of the reactive strand). IN binding to Fl-PFV^CAAT (or Fl-DNA#1) was compared to the binding to other DNA sequences (Fl-DNA#8 #9 #13). DNA annealing was obtained by mixing equimolar amounts of complementary strands in buffer A, heating to 85 °C for 5 min and slow cooling to 25 °C. DNA-binding experiments were performed at 25 °C in buffer A.
(§2) Figure S7. Differential effect of INSTI and INBI compounds on the INPFV-viral DNA interaction.
(§3) The formation of IN-DNA complexes was measured by steady-state fluorescence anisotropy using 400 nM INPFV and 4 nM Fl-PFVCAAT (also named Fl-DNA#1) in the presence of 10 mM Mg2+ and […]
(§4) In each plot, the starting r value (≈ 0.20) corresponds to the typical value found at saturating concentrations of IN (see Fig. S6).
(§5) The INBI compound FZ41, a member of the styrylquinoline family of inhibitors, was used as a control […]
(§6) show mean ± SD values from two independent experiments. […]

wt IN^PFV (IN; WT) = target: T2, wt IN^PFV (IN; WT) (Human spumaretrovirus, UniProt P14350); assay: Inhibition of IN-viral DNA binding by steady-state fluorescence anisotropy of 4 nM Fl-PFV^CAAT with 400 nM IN, 10 mM Mg2+, 25 °C.; type: biochemical; settings: n = 2; read-out: IC50 (IN-DNA interaction)
T2 construct: gene pol; full-length, His-tagged, expressed in E. coli BL21-CodonPlus (DE3)-RIPL
Method: as §2, §3, §4, §5, §6, §1

Row | Structure (SMILES) | IC50 values (IN) | r value of Fl-DNA (IN-DNA complex) on increasing INSTI concentration [1] | IC50 (wt IN^PFV (IN; WT)) [nM]
1 | COc1cc2c(cc1Cc1cccc(Cl)c1F)c(=O)c(C(=O)O)cn2[C@H](CO)C(C)C [EVG, elvitegravir] | low-nanomolar range | remained constant | 
2 | COc1cc(/C=C/c2ccc3ccc(C(=O)O)c(O)c3n2)cc(O)c1O [FZ41, FZ41 (styrylquinoline family INBI compound)] |  |  | ~800
3 | Cc1nnc(C(=O)NC(C)(C)c2nc(C(=O)NCc3ccc(F)cc3)c(O)c(=O)n2C)o1 [RAL, Raltegravir] | low-nanomolar range | remained constant | 
